The source of these data is ChEMBL document CHEMBL1158812, “Monoterpene lactones from the seeds of Nephelium lappaceum” (2005).

What all share (format): functional
Assay [1] deals with Bacillus subtilis. Briefly: Antibacterial activity against Bacillus subtilis UPCC 1295 assessed as activity index at 30 ug by agar well method relative to control.
Assay [2] concerns Pseudomonas aeruginosa. The assay is described as follows: Antibacterial activity against Pseudomonas aeruginosa UPCC 1244 assessed as activity index at 30 ug by agar well method relative to control.
Assay [3] concerns Escherichia coli. Briefly: Antibacterial activity against Escherichia coli UPCC 1195 assessed as activity index at 30 ug by agar well method relative to control.
Assay [4] deals with Escherichia coli. The assay is described as follows: Antibacterial activity against Escherichia coli UPCC 1195 at 30 ug by agar well method. Particulars: read-out: IZ.
Assay [5] has as its system Pseudomonas aeruginosa. The assay is described as follows: Antibacterial activity against Pseudomonas aeruginosa UPCC 1244 at 30 ug by agar well method. Particulars: read-out: IZ.
Assay [6] relates to Bacillus subtilis. Briefly: Antibacterial activity against Bacillus subtilis UPCC 1295 at 30 ug by agar well method. Particulars: read-out: IZ.
For assay [7], the system named is Staphylococcus aureus. Briefly: Antibacterial activity against Staphylococcus aureus UPCC 1143 at 30 ug by agar well method. Particulars: read-out: IZ.
In assay [8] the test system is Staphylococcus aureus. Briefly: Antibacterial activity against Staphylococcus aureus UPCC 1143 assessed as activity index at 30 ug by agar well method relative to control.
Assay [9] deals with Candida albicans. The assay is described as follows: Antimicrobial activity against Candida albicans UPCC 2168 at 30 ug by agar well method. Particulars: read-out: IZ.
Assay [10] has as its system Trichophyton mentagrophytes. The assay is described as follows: Antimicrobial activity against Trichophyton mentagrophytes UPCC 4193 at 30 ug by agar well method. Particulars: read-out: IZ.
The test system of assay [11] is Trichophyton mentagrophytes. The assay is described as follows: Antimicrobial activity against Trichophyton mentagrophytes UPCC 4193 assessed as activity index at 30 ug by agar well method relative to control.
In assay [12] the test system is Aspergillus niger. Briefly: Antimicrobial activity against Aspergillus niger UPCC 4219 assessed as activity index at 30 ug by agar well method relative to control.
Assay [13] relates to Candida albicans. Briefly: Antimicrobial activity against Candida albicans UPCC 2168 assessed as activity index at 30 ug by agar well method relative to control.
For assay [14], the system named is Aspergillus niger. The assay is described as follows: Antimicrobial activity against Aspergillus niger UPCC 4219 at 30 ug by agar well method. Particulars: read-out: IZ.

The structures appear in SMILES notation.

Consider `O=C(N[C@H](CO)[C@H](O)c1ccc([N+](=O)[O-])cc1)C(Cl)Cl` [CHLORAMPHENICOL], for which the Activity_index in the assay on Bacillus subtilis [1] is recorded as 2.3; with Pseudomonas aeruginosa [2], 1.3; with Escherichia coli [3], 2.8; with Staphylococcus aureus [8] it was 3.2. The zone of inhibition at 30 µg/disc worked out at 23 mm in the assay with Escherichia coli [4], 14 mm in the assay on Pseudomonas aeruginosa [5], 20 mm in the assay with Bacillus subtilis [6] and 25 mm with Staphylococcus aureus [7].

Regarding `O=C1C[C@@]2(CO1)CO[C@@]1(CO)CC(=O)O[C@@H]21` [LAPPACEOLIDE A], the Activity_index in the assay with Bacillus subtilis [1] is reported as 0; with Pseudomonas aeruginosa [2], 0.2; in the assay on Escherichia coli [3] it was 0.1; in assay [11], 0.4; in the assay on Aspergillus niger [12], 0.2; in the assay on Candida albicans [13], 0.3. Besides, the Activity_index in the assay with Staphylococcus aureus [8] came out at 0.1. Further, the zone of inhibition at 30 µg/disc in the assay on Candida albicans [9] was 13 mm; with Escherichia coli [4], 11 mm; in the assay with Pseudomonas aeruginosa [5] it was 12 mm; in assay [10], 14 mm; in the assay on Staphylococcus aureus [7] it was 11 mm; with Aspergillus niger [14] it was 12 mm.

Consider `O=C1C[C@]2(CO1)CO[C@@]1(CO)CC(=O)O[C@@H]21` [LAPPACEOLIDE B], for which the Activity_index in the assay with Bacillus subtilis [1] turned out to be 0; in the assay on Pseudomonas aeruginosa [2] it was 0.2; in the assay on Escherichia coli [3] it was 0.1; in assay [11], 0.3; in the assay on Aspergillus niger [12] it was 0.1; in the assay with Candida albicans [13] it was 0.3. The Activity_index in the assay with Staphylococcus aureus [8] came out at 0.1. The zone of inhibition at 30 µg/disc is 13 mm in the assay with Candida albicans [9]; 11 mm in the assay on Escherichia coli [4]; 12 mm with Pseudomonas aeruginosa [5]; 13 mm in [10]; 11 mm in the assay on Staphylococcus aureus [7]; 11 mm in the assay with Aspergillus niger [14].
